Here are results for 26 compounds from US11999716B2, “WDR5 inhibitors and modulators” (priority 2018, dated 2024).

The subject of this experiment is MV4:11 human cancer cell lines. The experiment can be described thus: Cellular viability / anti-proliferative activity, CellTiter-Glo, 5 day protocol. The format is cell-based. The settings on record: Homo sapiens, MV4-11, 120 h, MV4:11 cells; 5 day incubation; CellTiter-Glo; mean of minimum two replicates; read-out: GI50 on cellular proliferation of MV4:11 human cancer cell lines. An outline of the steps: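 Compounds were tested over 22 two-fold dilutions starting at 30 μM in 0.3% DMSO, with 200 cells per well (7200 cells/mL). Viability was measured by CellTiter-Glo luminescence at day 5.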

For `COc1ccnc(CN2CCc3c(cc(Cn4ccn(C)c4=N)cc3-c3cn(C)nc3C(F)(F)F)C2=O)c1` [Example 41, 7-((2-Imino-3-methyl-2,3-dihydro-1H-imidazol-1-yl)methyl)-2-((4-methoxypyridin-2-yl)methyl)-5-(1-methyl-3-(trifluoromethyl)-1H-pyrazol-4-yl)-3,4-dihydroisoquinolin-1(2H)-one], the GI50 stood at 0.064 µM.
The value for `CCn1cc(-c2cc(Cn3ccnc3)cc3c2CCN([C@H](c2cc(OC)ccn2)C2CC2)C3=O)c(C(F)(F)F)n1` [Example 212, (S)-7-((1H-Imidazol-1-yl)methyl)-2-(cyclopropyl(4-methoxypyridin-2-yl)methyl)-5-(1-ethyl-3-(trifluoromethyl)-1H-pyrazol-4-yl)-3,4-dihydroisoquinolin-1(2H)-one] was below 0.05 µM; that for `Cc1cc(CN2CCc3c(cc(Cn4ccnc4C)cc3-c3cn(C)nc3C(F)(F)F)C2=O)cnc1Cl` [Example 213, 2-((6-Chloro-5-methylpyridin-3-yl)methyl)-7-((2-methyl-1H-imidazol-1-yl)methyl)-5-(1-methyl-3-(trifluoromethyl)-1H-pyrazol-4-yl)-3,4-dihydroisoquinolin-1(2H)-one] was below 0.05 µM.
Next, `COc1cc(CN2CCc3c(cc(Cn4cnc5ccccc54)cc3-c3ccc(F)cc3C)C2=O)cc(OC)c1` [Example 227]: 7.45 µM; `Cc1cnc(Cl)c(CN2CCc3c(cc(Cn4ccnc4C)cc3-c3cn(C)nc3C(F)(F)F)C2=O)c1` [Example 223, 2-((2-Chloro-5-methylpyridin-3-yl)methyl)-7-((2-methyl-1H-imidazol-1-yl)methyl)-5-(1-methyl-3-(trifluoromethyl)-1H-pyrazol-4-yl)-3,4-dihydroisoquinolin-1(2H)-one]: below 0.05 µM; `COc1cc(CN2CCc3c(cc(Cn4ncnc4C)cc3-c3ccc(F)cc3C)C2=O)cc(OC)c1` [Example 144, 2-(3,5-Dimethoxybenzyl)-5-(4-fluoro-2-methylphenyl)-7-((5-methyl-1H-1,2,4-triazol-1-yl)methyl)-3,4-dihydroisoquinolin-1(2H)-one]: above 0.938 µM.
The value for `CCc1nccn1Cc1cc2c(c(-c3ccc(F)cc3C)c1)CCN([C@H](c1cc(C)ccn1)C1CC1)C2=O` [Example 13, (S)-2-(Cyclopropyl(4-methylpyridin-2-yl)methyl)-7-((2-ethyl-1H-imidazol-1-yl)methyl)-5-(4-fluoro-2-methylphenyl)-3,4-dihydroisoquinolin-1(2H)-one] was 0.105 µM; that for `COc1cc(CN2CCc3c(OC4CCC4)cc(Cn4ccn(C)c4=N)cc3C2=O)cc(OC)c1` [Example 69, 5-Cyclobutoxy-2-(3,5-dimethoxybenzyl)-7-((2-imino-3-methyl-2,3-dihydro-1H-imidazol-1-yl)methyl)-3,4-dihydroisoquinolin-1(2H)-one] was 0.502 µM; that for `COc1ccnc([C@H](C)N2CCc3c(cc(Cn4ccnc4C)cc3-c3c[nH]nc3C(F)(F)F)C2=O)c1` [Example 237, (S)-2-(1-(4-methoxypyridin-2-yl)ethyl)-7-((2-methyl-1H-imidazol-1-yl)methyl)-5-(3-(trifluoromethyl)-1H-pyrazol-4-yl)-3,4-dihydroisoquinolin-1(2H)-one] was below 0.05 µM.
Turning to `COc1ccnc(CN2CCc3c(cc(Cn4ccn(C)c4=N)cc3-c3cccnc3C)C2=O)c1` [Example 60, 7-((2-Imino-3-methyl-2,3-dihydro-1H-imidazol-1-yl)methyl)-2-((4-methoxypyridin-2-yl)methyl)-5-(2-methylpyridin-3-yl)-3,4-dihydroisoquinolin-1(2H)-one], the GI50 was above 0.938 µM.
Next, `CCn1cc(-c2cc(Cn3cnn(C)c3=N)cc3c2CCN(Cc2cc(C)nn2C)C3=O)c(C(F)(F)F)n1` [Example 128, 2-((1,3-Dimethyl-1H-pyrazol-5-yl)methyl)-7-((5-imino-1-methyl-1,5-dihydro-4H-1,2,4-triazol-4-yl)methyl)-5-(1-ethyl-3-(trifluoromethyl)-1H-pyrazol-4-yl)-3,4-dihydroisoquinolin-1(2H)-one]: above 0.938 µM; `CCn1cc(-c2cc(Cn3ccn(C)c3=N)cc3c2CCN(Cc2cc(OC)ccn2)C3=O)c(C)n1` [Example 63, 5-(1-Ethyl-3-methyl-1H-pyrazol-4-yl)-7-((2-imino-3-methyl-2,3-dihydro-1H-imidazol-1-yl)methyl)-2-((4-methoxypyridin-2-yl)methyl)-3,4-dihydroisoquinolin-1(2H)-one]: 0.274 µM.
Next, `Cc1ccnc([C@H](C2CC2)N2CCc3c(cc(Cn4ccn(C)c4=N)cc3-c3ccc(F)cc3C)C2=O)c1` [Example 37, (S)-2-(Cyclopropyl(4-methylpyridin-2-yl)methyl)-5-(4-fluoro-2-methylphenyl)-7-((2-imino-3-methyl-2,3-dihydro-1H-imidazol-1-yl)methyl)-3,4-dihydroisoquinolin-1(2H)-one]: below 0.05 µM.
The value for `CCn1cc(-c2cc(Cn3cnn(C)c3=N)cc3c2CCN(Cc2cc(OC)ccn2)C3=O)c(C(F)(F)F)n1` [Example 123, 5-(1-Ethyl-3-(trifluoromethyl)-1H-pyrazol-4-yl)-7-((5-imino-1-methyl-1,5-dihydro-4H-1,2,4-triazol-4-yl)methyl)-2-((4-methoxypyridin-2-yl)methyl)-3,4-dihydroisoquinolin-1(2H)-one] was below 0.05 µM; that for `Cc1cnc(CN2CCc3c(cc(Cn4ccnc4C)cc3-c3cn(C)nc3C(F)(F)F)C2=O)s1` [Example 195, 7-((2-Methyl-1H-imidazol-1-yl)methyl)-5-(1-methyl-3-(trifluoromethyl)-1H-pyrazol-4-yl)-2-((5-methylthiazol-2-yl)methyl)-3,4-dihydroisoquinolin-1(2H)-one] was 0.217 µM.
As for `COc1cc(CN2CCc3c(cc(Cn4cc(C)nc4C)cc3-c3cn(C)nc3C(F)(F)F)C2=O)cc(OC)c1` [Example 17, 2-(3,5-Dimethoxybenzyl)-7-((2,4-dimethyl-1H-imidazol-1-yl)methyl)-5-(1-methyl-3-(trifluoromethyl)-1H-pyrazol-4-yl)-3,4-dihydroisoquinolin-1(2H)-one], the GI50 stood at 0.36 µM.
Next, `COc1cc(CN2CCc3c(OCC4CC4)cc(Cn4ccn(C)c4=N)cc3C2=O)cc(OC)c1` [Example 75, 5-(Cyclopropylmethoxy)-2-(3,5-dimethoxybenzyl)-7-((2-imino-3-methyl-2,3-dihydro-1H-imidazol-1-yl)methyl)-3,4-dihydroisoquinolin-1(2H)-one]: above 0.938 µM; `CCn1cc(-c2cc(Cn3cnc(C)c3)cc3c2CCN([C@H](c2cc(OC)ccn2)C2CC2)C3=O)c(C(F)(F)F)n1` [Example 244, (S)-2-(cyclopropyl(4-methoxypyridin-2-yl)methyl)-5-(1-ethyl-3-(trifluoromethyl)-1H-pyrazol-4-yl)-7-((4-methyl-1H-imidazol-1-yl)methyl)-3,4-dihydroisoquinolin-1(2H)-one]: 0.119 µM.
The value for `COc1cc(CN2CCCc3c(cc(Cn4ccnc4C)cc3-c3ccc(F)cc3C)C2=O)cc(OC)c1` [Example 141, 2-(3,5-dimethoxybenzyl)-6-(4-fluoro-2-methylphenyl)-8-((2-methyl-1H-imidazol-1-yl)methyl)-2,3,4,5-tetrahydro-1H-benzo[c]azepin-1-one] was above 0.938 µM.
Next, `COc1cc(CN2CCc3c(OC4CCC4)cc(Cn4ccoc4=N)cc3C2=O)cc(OC)c1` [Example 92, 5-Cyclobutoxy-2-(3,5-dimethoxybenzyl)-7-((2-iminooxazol-3(2H)-yl)methyl)-3,4-dihydroisoquinolin-1(2H)-one]: above 0.938 µM; `CCc1cccc(CN2CCc3c(cc(Cn4ccnc4C)cc3-c3cn(C)nc3C(F)(F)F)C2=O)c1` [Example 210, 2-(3-Ethylbenzyl)-7-((2-methyl-1H-imidazol-1-yl)methyl)-5-(1-methyl-3-(trifluoromethyl)-1H-pyrazol-4-yl)-3,4-dihydroisoquinolin-1(2H)-one]: 0.148 µM.
In the case of `COc1cc(CN2CCc3c(cc(CNC(=N)C4CC4)cc3-c3ccc(F)cc3C)C2=O)cc(OC)c1` [Example 118, N-((2-(3,5-Dimethoxybenzyl)-5-(4-fluoro-2-methylphenyl)-1-oxo-1,2,3,4-tetrahydroisoquinolin-7-yl)methyl)cyclopropanecarboximidamide], the GI50 is 0.159 µM.
As to `CCn1cc(-c2cc(Cn3cc4n(c3=N)CCC4)cc3c2CCN(Cc2cc(OC)ccn2)C3=O)c(C(F)(F)F)n1` [Example 56, 5-(1-Ethyl-3-(trifluoromethyl)-1H-pyrazol-4-yl)-7-((3-imino-6,7-dihydro-3H-pyrrolo[1,2-c]imidazol-2(5H)-yl)methyl)-2-((4-methoxypyridin-2-yl)methyl)-3,4-dihydroisoquinolin-1(2H)-one], the GI50 is 0.87 µM.
Take `COc1ccnc(CN2CCc3c(cc(CNC(=N)C4CC4)cc3-c3cn(C)nc3C)C2=O)c1` [Example 119, N-((5-(1,3-Dimethyl-1H-pyrazol-4-yl)-2-((4-methoxypyridin-2-yl)methyl)-1-oxo-1,2,3,4-tetrahydroisoquinolin-7-yl)methyl)cyclopropanecarboximidamide]: the GI50 is above 0.938 µM.
In the case of `Cc1nccn1Cc1cc2c(c(-c3cn(C)nc3C(F)(F)F)c1)CCN(Cc1cc(Cl)cc3ccccc13)C2=O` [Example 225, 2-((3-Chloronaphthalen-1-yl)methyl)-7-((2-methyl-1H-imidazol-1-yl)methyl)-5-(1-methyl-3-(trifluoromethyl)-1H-pyrazol-4-yl)-3,4-dihydroisoquinolin-1(2H)-one], the GI50 stood at 0.195 µM.
Next, `Cc1ccnc(CN2CCc3c(cc(CN4CCCC4=N)cc3-c3cn(C)nc3C(F)(F)F)C2=O)c1` [Example 112, 7-((2-Iminopyrrolidin-1-yl)methyl)-5-(1-methyl-3-(trifluoromethyl)-1H-pyrazol-4-yl)-2-((4-methylpyridin-2-yl)methyl)-3,4-dihydroisoquinolin-1(2H)-one]: 0.16 µM.
